Among the data in US20240116985A1, “STAPLED PEPTIDES AND METHODS THEREOF” (priority 2020, published 2024) are IC50 values, retold here.

Structures are written as SMILES. pIC50: −log10 of the molar value.

Assay [1] addresses T1, beta-catenin/TCF4 engagement (Homo sapiens, UniProt P35222).
T1 construct: expressed in transfected cells; host or cells: HEK293
T1 sequence (P35222 1-781): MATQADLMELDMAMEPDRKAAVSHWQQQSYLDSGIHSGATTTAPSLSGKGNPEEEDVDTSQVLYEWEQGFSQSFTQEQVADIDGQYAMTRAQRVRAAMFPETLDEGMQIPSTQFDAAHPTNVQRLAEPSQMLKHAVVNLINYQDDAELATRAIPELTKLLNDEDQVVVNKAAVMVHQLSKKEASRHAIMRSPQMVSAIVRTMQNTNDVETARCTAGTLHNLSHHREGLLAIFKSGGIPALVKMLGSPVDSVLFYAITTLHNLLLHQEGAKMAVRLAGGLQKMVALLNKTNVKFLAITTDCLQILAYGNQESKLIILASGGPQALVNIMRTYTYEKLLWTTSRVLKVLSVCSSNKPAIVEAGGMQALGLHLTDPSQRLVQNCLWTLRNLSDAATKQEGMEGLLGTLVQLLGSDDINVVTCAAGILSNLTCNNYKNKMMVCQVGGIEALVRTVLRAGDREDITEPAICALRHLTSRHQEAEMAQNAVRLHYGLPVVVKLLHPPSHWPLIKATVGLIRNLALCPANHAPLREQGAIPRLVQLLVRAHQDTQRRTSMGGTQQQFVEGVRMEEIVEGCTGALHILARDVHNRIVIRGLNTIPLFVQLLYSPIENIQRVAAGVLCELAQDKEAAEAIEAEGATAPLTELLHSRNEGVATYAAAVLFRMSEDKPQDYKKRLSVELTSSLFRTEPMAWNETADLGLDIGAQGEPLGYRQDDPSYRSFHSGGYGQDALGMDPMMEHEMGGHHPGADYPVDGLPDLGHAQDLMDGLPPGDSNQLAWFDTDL
In words: Nano-BRET target engagement assay (B-cat-Halo & TCF4-Luc in HEK293 cells). Format: cell-based. As to conditions: read-out: NanoBRET Abs IC50. On the technique in general: BRET reads energy transfer from a luciferase to a nearby fluorophore.

Assay [2] addresses T2, full-length beta-Catenin (Uniprot ID P35222) (Homo sapiens, UniProt P35222).
T2 construct: 10 nM full-length beta-Catenin (Uniprot ID P35222)
T2 sequence (P35222 1-781): T1 sequence (P35222 1-781)
In words: Fluorescence polarization IC50 (beta-catenin / 5FAM-TCF4 10-53 competition). Type of assay: binding. The note with it: fluorescence polarization; read-out: beta-Catenin FP IC50. For orientation: Polarisation of emitted light reports the rotation of a fluorescent probe.

For the molecule `CC(=O)N1CCC[C@]12CC=CCCCC1(CCCC=CCCCOC(=O)N3CC[C@@](C(=O)N[C@@H](Cc4ccccc4)C(=O)N[C@@H](Cc4csc5ccccc45)C(=O)N[C@@H](C)C(N)=O)(C3)NC(=O)[C@H](CC(N)=O)NC(=O)[C@H](Cc3ccccc3)NC(=O)[C@H](C)NC(=O)[C@H](Cc3c[nH]cn3)NC(=O)[C@H](CCC(N)=O)NC(=O)[C@H](CC(=O)O)NC1=O)NC(=O)[C@H](CC1CCCCC1)NC(=O)[C@H](CC(N)=O)NC2=O` (stereo partly drawn) [I-2069, Ac-PL3-Asn-Cha-B5-Asp-Gln-His-Ala-Phe-Asn-PyrS2-Phe-BztA-Ala-NH2], the negative logarithm of the IC50 (pIC50) in assay [1] is below 4.70; in assay [2], 6.59.
With `CC(=O)N1CCC[C@]12CC=CCCCC1(CCCC=CCCCOC(=O)N3CC[C@@](C(=O)N[C@@H](Cc4ccccc4)C(=O)N[C@@H](Cc4csc5ccccc45)C(=O)N[C@@H](C)C(N)=O)(C3)NC(=O)[C@H](CC(N)=O)NC(=O)[C@H](Cc3ccccc3)NC(=O)[C@H](C)NC(=O)[C@H](CCC(N)=O)NC(=O)[C@H](CCC(N)=O)NC(=O)[C@H](CC(=O)O)NC1=O)NC(=O)[C@H](CC1CCCCC1)NC(=O)[C@H](CC(N)=O)NC2=O` (stereo partly drawn) [I-2070, Ac-PL3-Asn-Cha-B5-Asp-Gln-Gln-Ala-Phe-Asn-PyrS2-Phe-BztA-Ala-NH2], the pIC50 in assay [1] was below 4.70; in assay [2], 6.72.
The like results for `CC(=O)N1CCC[C@]12CC=CCCCC1(CCCC=CCCCOC(=O)N3CC[C@@](C(=O)N[C@@H](Cc4ccsc4)C(=O)N[C@@H](Cc4csc5ccccc45)C(=O)N[C@@H](CCC(N)=O)C(N)=O)(C3)NC(=O)[C@H](CC(C)C)NC(=O)[C@H](Cc3ccccc3)NC(=O)[C@H](C)NC(=O)[C@H](C)NC(=O)[C@H](CCn3cc(CCC(=O)O)nn3)NC(=O)[C@H](CC(=O)O)NC1=O)NC(=O)[C@H](CC(C)(C)C)NC(=O)[C@H](CC(=O)O)NC2=O` (stereo partly drawn) [I-2076, Ac-PL3-Asp-Npg-B5-Asp-[CH2CH2CO2H]TriAzDab-Ala-Ala-Phe-Leu-PyrS2-3Thi-BztA-Gln-NH2] were, in that order, 4.85 and 7.80.
The like results for `CC(=O)N1CCC[C@]12CC=CCCCC1(CCCC=CCCCOC(=O)N3CC[C@@](C(=O)N[C@@H](Cc4ccsc4)C(=O)N[C@@H](Cc4csc5ccccc45)C(=O)N[C@@H](CCC(N)=O)C(N)=O)(C3)NC(=O)[C@H](CC(C)C)NC(=O)[C@H](Cc3ccccc3)NC(=O)[C@H](C)NC(=O)[C@H](C)NC(=O)[C@H](CCn3cc(CC(=O)O)nn3)NC(=O)[C@H](CC(=O)O)NC1=O)NC(=O)[C@H](CC(C)(C)C)NC(=O)[C@H](CC(=O)O)NC2=O` (stereo partly drawn) [I-2078, Ac-PL3-Asp-Npg-B5-Asp-[CH2CO2H]TriAzDab-Ala-Ala-Phe-Leu-PyrS2-3Thi-BztA-Gln-NH2] were, in that order, 4.93 and 8.30.
As for `CC(=O)N1CCC[C@]12CC=CCCCC1(CCCC=CCCCOC(=O)N3CC[C@@](C(=O)N[C@@H](Cc4ccsc4)C(=O)N[C@@H](Cc4csc5ccccc45)C(=O)N[C@@H](CCC(N)=O)C(N)=O)(C3)NC(=O)[C@H](CC(C)C)NC(=O)[C@H](Cc3ccccc3)NC(=O)[C@H](C)NC(=O)[C@H](C)NC(=O)[C@H](CCn3cc(C(C)(C)C(=O)O)nn3)NC(=O)[C@H](CC(=O)O)NC1=O)NC(=O)[C@H](CC(C)(C)C)NC(=O)[C@H](CC(=O)O)NC2=O` (stereo partly drawn) [I-2079, Ac-PL3-Asp-Npg-B5-Asp-[CMe2CO2H]TriAzDab-Ala-Ala-Phe-Leu-PyrS2-3Thi-BztA-Gln-NH2], the pIC50 is 4.82 in assay [1] and 8.10 in assay [2].
Consider `CC(=O)N1CCC[C@]12CC=CCCCC1(CCCC=CCCCOC(=O)N3CC[C@@](C(=O)N[C@@H](Cc4ccsc4)C(=O)N[C@@H](Cc4csc5ccccc45)C(=O)N[C@@H](CCC(N)=O)C(N)=O)(C3)NC(=O)[C@H](CC(C)C)NC(=O)[C@H](Cc3ccccc3)NC(=O)[C@H](C)NC(=O)[C@H](C)NC(=O)[C@H](CCn3cc(-c4ccccc4C(=O)O)nn3)NC(=O)[C@H](CC(=O)O)NC1=O)NC(=O)[C@H](CC(C)(C)C)NC(=O)[C@H](CC(=O)O)NC2=O` (stereo partly drawn) [I-2080, Ac-PL3-Asp-Npg-B5-Asp-[2COOHPh]TriAzDab-Ala-Ala-Phe-Leu-PyrS2-3Thi-BztA-Gln-NH2], for which the pIC50 in assay [1] was 4.54; in assay [2], 7.35.
As to `CC(=O)N1CCC[C@]12CC=CCCCC1(CCCC=CCCCOC(=O)N3CC[C@@](C(=O)N[C@@H](Cc4ccsc4)C(=O)N[C@@H](Cc4csc5ccccc45)C(=O)N[C@@H](CCC(N)=O)C(N)=O)(C3)NC(=O)[C@H](CC(C)C)NC(=O)[C@H](Cc3ccccc3)NC(=O)[C@H](C)NC(=O)[C@H](C)NC(=O)[C@H](CCn3cc(-c4ccccc4C(=O)O)nn3)NC(=O)[C@H](CC(=O)O)NC1=O)NC(=O)[C@H](CC(C)(C)C)NC(=O)[C@H](CC(=O)O)NC2=O` (stereo partly drawn) [I-2081, Ac-PL3-Asp-Npg-B5-Asp-[2COOHPh]TriAzDab-Ala-Ala-Phe-Leu-PyrS2-3Thi-BztA-Gln-NH2], the pIC50 is 4.94 in assay [1] and 7.89 in assay [2].
Consider `CC(=O)N1CCC[C@]12CC=CCCCC1(CCCC=CCCCOC(=O)N3CC[C@@](C(=O)N[C@@H](Cc4ccsc4)C(=O)N[C@@H](Cc4csc5ccccc45)C(=O)N[C@@H](CCC(N)=O)C(N)=O)(C3)NC(=O)[C@H](CC(C)C)NC(=O)[C@H](Cc3ccccc3)NC(=O)[C@H](C)NC(=O)[C@H](C)NC(=O)[C@H](Cn3cc(CCC(=O)O)nn3)NC(=O)[C@H](CC(=O)O)NC1=O)NC(=O)[C@H](CC(C)(C)C)NC(=O)[C@H](CC(=O)O)NC2=O` (stereo partly drawn) [I-2082, Ac-PL3-Asp-Npg-B5-Asp-[CH2CH2CO2H]TriAzDap-Ala-Ala-Phe-Leu-PyrS2-3Thi-BztA-Gln-NH2], for which the pIC50 in assay [1] was 5.11; in assay [2], 8.30.
The corresponding values for `CC(=O)N1CCC[C@]12CC=CCCCC1(CCCC=CCCCOC(=O)N3CC[C@@](C(=O)N[C@@H](Cc4ccsc4)C(=O)N[C@@H](Cc4csc5ccccc45)C(=O)N[C@@H](CCC(N)=O)C(N)=O)(C3)NC(=O)[C@H](CC(C)C)NC(=O)[C@H](Cc3ccccc3)NC(=O)[C@H](C)NC(=O)[C@H](C)NC(=O)[C@H](Cn3cc(CC(C)(C)C(=O)O)nn3)NC(=O)[C@H](CC(=O)O)NC1=O)NC(=O)[C@H](CC(C)(C)C)NC(=O)[C@H](CC(=O)O)NC2=O` (stereo partly drawn) [I-2083, Ac-PL3-Asp-Npg-B5-Asp-[CH2CMe2CO2H]TriAzDap-Ala-Ala-Phe-Leu-PyrS2-3Thi-BztA-Gln-NH2] are 5.43 and 8.30.
The corresponding values for `CC(=O)N1CCC[C@]12CC=CCCCC1(CCCC=CCCCOC(=O)N3CC[C@@](C(=O)N[C@@H](Cc4ccsc4)C(=O)N[C@@H](Cc4csc5ccccc45)C(=O)N[C@@H](CCC(N)=O)C(N)=O)(C3)NC(=O)[C@H](CC(C)C)NC(=O)[C@H](Cc3ccccc3)NC(=O)[C@H](C)NC(=O)[C@H](C)NC(=O)[C@H](Cn3cc(C(C)(C)C(=O)O)nn3)NC(=O)[C@H](CC(=O)O)NC1=O)NC(=O)[C@H](CC(C)(C)C)NC(=O)[C@H](CC(=O)O)NC2=O` (stereo partly drawn) [I-2085, Ac-PL3-Asp-Npg-B5-Asp-[CMe2CO2H]TriAzDap-Ala-Ala-Phe-Leu-PyrS2-3Thi-BztA-Gln-NH2] are 5.21 and 8.30.
With `CC(=O)N1CCC[C@]12CC=CCCCC1(CCCC=CCCCOC(=O)N3CC[C@@](C(=O)N[C@@H](Cc4ccsc4)C(=O)N[C@@H](Cc4csc5ccccc45)C(=O)N[C@@H](CCC(N)=O)C(N)=O)(C3)NC(=O)[C@H](CC(C)C)NC(=O)[C@H](Cc3ccccc3)NC(=O)[C@H](C)NC(=O)[C@H](C)NC(=O)[C@H](Cn3cc(-c4ccccc4C(=O)O)nn3)NC(=O)[C@H](CC(=O)O)NC1=O)NC(=O)[C@H](CC(C)(C)C)NC(=O)[C@H](CC(=O)O)NC2=O` (stereo partly drawn) [I-2086, Ac-PL3-Asp-Npg-B5-Asp-[2COOHPh]TriAzDap-Ala-Ala-Phe-Leu-PyrS2-3Thi-BztA-Gln-NH2], the pIC50 in assay [1] was 4.79; in assay [2] it was 7.92.
The like results for `CC(=O)N1CCC[C@]12CC=CCCCC1(CCCC=CCCCOC(=O)N3CC[C@@](C(=O)N[C@@H](Cc4ccsc4)C(=O)N[C@@H](Cc4csc5ccccc45)C(=O)N[C@@H](CCC(N)=O)C(N)=O)(C3)NC(=O)[C@H](CC(C)C)NC(=O)[C@H](Cc3ccccc3)NC(=O)[C@H](C)NC(=O)[C@H](C)NC(=O)[C@H](CNc3ccc(N)cc3C(=O)O)NC(=O)[C@H](CC(=O)O)NC1=O)NC(=O)[C@H](CC(C)(C)C)NC(=O)[C@H](CC(=O)O)NC2=O` (stereo partly drawn) [I-2087, Ac-PL3-Asp-Npg-B5-Asp-[2COOH4NH2Ph]Dap-Ala-Ala-Phe-Leu-PyrS2-3Thi-BztA-Gln-NH2] were, in that order, 5.19 and 7.59.
As for `CC(=O)N1CCC[C@]12CC=CCCCC1(CCCC=CCCCOC(=O)N3CC[C@@](C(=O)N[C@@H](Cc4ccsc4)C(=O)N[C@@H](Cc4csc5ccccc45)C(=O)N[C@H](CCC(N)=O)C(N)=O)(C3)NC(=O)[C@H](CC(C)C)NC(=O)[C@H](Cc3ccccc3)NC(=O)[C@H](C)NC(=O)[C@H](C)NC(=O)[C@H](Cc3cccc(C(=O)O)c3)NC(=O)[C@H](CC(=O)O)NC1=O)NC(=O)[C@H](CC(C)(C)C)NC(=O)[C@H](CC(=O)O)NC2=O` (stereo partly drawn) [I-2088, Ac-PL3-Asp-Npg-B5-Asp-3COOHF-Ala-Ala-Phe-Leu-PyrS2-3Thi-BztA-dGln-NH2], the pIC50 in assay [1] is 5.36; in assay [2], 8.00.

Broadly, the pIC50 is the IC50 on a negative log10 scale, so that one unit is a factor of ten.
